# Test results published in patent US5830871A, “Inhibitors of E-, P- and L-selectin binding” (The Scripps Research Institute, priority 1996, dated 1998).
# Tests used:
# [1] = tested on: neutrophil/P-selection-dependent rat model; conditions: cited from earlier work; for lung injury / tissue accumulation of neutrophils: intravenous infusion of up to 200 μg, cobra venom
# E-selectin [2] = biological target: T1, E-selectin (Homo sapiens, UniProt P16581); test: Inhibition of SLe^x glycoconjugate / HL-60 cell binding to immobilized sol-E-selectin
# T1 construct: A 1.67 kbp DNA fragment encoding a truncated structural gene for E-selectin; made in house
# T1 sequence (P16581 22-556 limits assumed): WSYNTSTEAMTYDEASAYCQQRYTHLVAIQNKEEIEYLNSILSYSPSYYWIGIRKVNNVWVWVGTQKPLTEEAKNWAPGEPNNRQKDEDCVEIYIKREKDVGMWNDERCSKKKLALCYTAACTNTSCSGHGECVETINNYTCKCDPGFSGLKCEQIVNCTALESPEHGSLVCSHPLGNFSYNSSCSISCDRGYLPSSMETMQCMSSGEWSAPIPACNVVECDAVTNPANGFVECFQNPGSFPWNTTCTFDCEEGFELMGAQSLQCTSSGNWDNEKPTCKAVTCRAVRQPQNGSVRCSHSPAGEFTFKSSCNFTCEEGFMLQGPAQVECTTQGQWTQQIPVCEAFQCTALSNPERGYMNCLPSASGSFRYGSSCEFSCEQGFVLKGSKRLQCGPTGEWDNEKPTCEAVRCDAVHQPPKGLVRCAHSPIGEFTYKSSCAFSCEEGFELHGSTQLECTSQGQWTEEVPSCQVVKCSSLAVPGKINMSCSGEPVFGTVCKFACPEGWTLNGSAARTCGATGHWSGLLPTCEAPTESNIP
# Protocol: Analysis of compound 6 (class II compound; FIG. 1) as an inhibitor of SLe^x glycoconjugate binding to E-selectin provides an IC50 value of 0.8 mM, according to the method of S. A. DeFrees, et al., viz. J. Am. Chem. Soc. 1995, 117, 66.
# A soluble form of E-selectin (sol-E-selectin) was prepared for inhibition assays of the SLe^x Mimetics. A 1.67 kbp DNA fragment encoding a truncated structural gene for E-selectin was isolated by PCR amplification of CDNA derived from messenger RNA that was isolated from IL-1 activated human endothelial cells. The CDNA was subcloned into the vector pBluescript II and was transfected into 293 cells. The clones were screened for the production of sol-E-selectin, and the clone 293#3 was selected as the stable cell line that produced the greatest amount of sol-E-selectin per cell. Sol-E-selectin was produced on a large scale from this line using a Nunc cell factory. Recombinant sol-E-selectin was isolated from the media using immunoaffinity chromatography.
# The SLe^x Mimetics were assayed for ability to block the adhesion of HL-60 cells to immobilized sol-E-selectins (either on a polymeric column solid support or onto the surface of the assay vessle). Immobilized E-selectin was incubated first with inhibitor and then with HL-60 cells. The bound cells were lysed, and myeloperoxidase released from the bound cells was detected with o-phenylenediamine and hydrogen peroxide. The percentage inhibition was determined by comparing the absorbance of the resulting solution at 492 nm to that in wells containing no inhibitor.
# Each data point in the E-selectin assay is a direct measure of cells bound using a quantitative enzyme assay. The values were then plotted to give the titration curve and IC50 values. On average, five assays were performed for each inhibitor, and the results were highly reproducible. […] The IC50 values reported here is derived from all the data. Procedure described herein is adopted from Wong et. al. J. Am. Chem. Soc. 1995, 177, 66-79.
# lung injury in rats = conditions: in vivo, read-out: IC50 value in vivo for protecting against lung injury; cited from earlier work
# E-selectin [3] = conditions: in vitro; cited from earlier work
# E-selectin [4] = conditions: cited from earlier work
# [5] = tested on: adhesion of neutophils to endothelial cells; conditions: cited from earlier work
# [6] = blood stream; glycosidase; cited from earlier work
# [7] = cited from earlier work
# P-selectin = test: Inhibition of P-selectin; assay type: binding
# L-selectin = test: Inhibition of L-selectin; assay type: binding
Compound,lung injury [1],tissue accumulation of neutrophils [1],IC50 (E-selectin [2]) [µM],"effective intravenous concentration ([1]; calculated from concentrations used, 200 μg)",IC50 (lung injury in rats) [µM],affinity for E-selectin (E-selectin [3]),SLe^x/E-selectin interaction (E-selectin [4]),adhesion of neutrophils to endothelial cells [5],stability in the blood [6],oral activity [7],biological activity compared with SLe^x (E-selectin [2]; compared with SLe^x (0.50 mM)),inhibition of P-selectin (P-selectin; @ 3 mM) [%],P-selectin inhibition activity compared with sialyl Lewis X (P-selectin; compared with sialyl lewis X),inhibition of L-selectin (L-selectin; @ 3 mM) [%],L-selectin inhibition activity compared with sialyl Lewis X (L-selectin; compared with sialyl lewis X)
"NeuAcα2→3Galβ1→4(Fucα1→3)GlcNAcβ1, 3Galβ- [pentamer]",dramatically reduced lung injury,diminished tissue accumulation of neutrophils,–,–,–,–,–,–,–,–,–,–,–,–,–
"CC(=O)NC1C(O)CC(OC2C(O)C(CO)OC(OC3C(CO)OC(O)C(NC(C)=O)C3OC3OC(C)C(O)C(O)C3O)C2O)(C(=O)O)OC1C(O)C(O)CO (stereo not drawn) [SLe^x, NeuAcα2→3Galβ1→4(Fucα1→3GlcNAc]",dramatically reduced lung injury,diminished tissue accumulation of neutrophils,500,less than 1 μM,~1,relatively weak,inhibits the SLe^x /E-selectin interaction,blocks adhesion of neutophils to endothelial cells,unstable in the blood stream,orally inactive,–,–,–,–,–
O=C(COP(=O)(O)O)[C@@H](O)[C@H](O)C[C@H]1O[C@H](CO)[C@@H](O)[C@H](O)[C@@H]1O [Compound 6],–,–,800,–,–,–,–,–,–,–,almost the same biological activity as SLe^x,> 80,better or equal to that of sialyl lewis X,> 80,better or equal to that of sialyl lewis X
